Laboratory results: ChEMBL document CHEMBL1201861, “Genomics of Drug Sensitity in Cancer screening data, Wellcome Trust Sanger Institute”

Assays:
RT-4 = experiment: SANGER: Inhibition of human RT4 cell growth in a cell viability assay.; format: functional, cell-based; conditions: Homo sapiens, RT-4
SK-MEL-5 = experiment: SANGER: Inhibition of human SK-MEL-5 cell growth in a cell viability assay.; format: functional, cell-based
SK-MG-1 = experiment: SANGER: Inhibition of human SK-MG-1 cell growth in a cell viability assay.; format: functional, cell-based
EW-7 = experiment: SANGER: Inhibition of human EW-7 cell growth in a cell viability assay.; format: functional, cell-based; conditions: Homo sapiens, EW-7
RH-18 = experiment: cells; format: functional, cell-based, Homo sapiens; conditions: Homo sapiens, Rh18;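 also: growth inhibition of human RH-18 cells, read out with a cell viability assay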
Description: SANGER: Inhibition of human RH-18 cell growth in a cell viability assay.

NCI-H1666 = experiment: cells; format: functional, cell-based, Homo sapiens; conditions: Homo sapiens, NCI-H1666;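 also: growth inhibition of the cell line, read out with a cell viability assay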
Description: SANGER: Inhibition of human NCI-H1666 cell growth in a cell viability assay.

COLO 205 = experiment: cells; format: functional, cell-based, Homo sapiens; conditions: Homo sapiens, COLO 205
Description: SANGER: Inhibition of human COLO-205 cell growth in a cell viability assay.

MDA-MB-468 = experiment: cells; format: functional, cell-based, Homo sapiens; conditions: Homo sapiens, MDA-MB-468
Description: SANGER: Inhibition of human MDA-MB-468 cell growth in a cell viability assay.

SNU-475 = experiment: cells; format: functional, cell-based, Homo sapiens; conditions: Homo sapiens, SNU-475
Description: SANGER: Inhibition of human SNU-475 cell growth in a cell viability assay.

Caov-3 cell line = experiment: cells; format: functional, cell-based, Homo sapiens; conditions: Homo sapiens, Caov-3;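 also: cell growth inhibition read out by a viability assay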
Description: SANGER: Inhibition of human Caov-3 cell growth in a cell viability assay.

PLC-PRF-5 = experiment: cells; format: functional, cell-based, Homo sapiens; conditions: Homo sapiens, PLC-PRF-5;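 also: growth inhibition of human PLC-PRF-5 cells, read out with a viability assay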
Description: SANGER: Inhibition of human PLC-PRF-5 cell growth in a cell viability assay.

MFE-296 = experiment: SANGER: Inhibition of human MFE-296 cell growth in a cell viability assay.; format: functional, cell-based; conditions: Homo sapiens, MFE-296
SK-CO-1 = experiment: cells; format: functional, cell-based, Homo sapiens; conditions: Homo sapiens, SK-CO-1;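 also: growth inhibition of SK-CO-1 cells, determined by a viability readout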
Description: SANGER: Inhibition of human SK-CO-1 cell growth in a cell viability assay.

IPC-298 = experiment: SANGER: Inhibition of human IPC-298 cell growth in a cell viability assay.; format: functional, cell-based; conditions: Homo sapiens, IPC-298
SNG-M = experiment: cells; format: functional, cell-based, Homo sapiens; conditions: Homo sapiens, SNG-M
Description: SANGER: Inhibition of human SNG-M cell growth in a cell viability assay.

CCF-STTG1 = experiment: cells; format: functional, cell-based, Homo sapiens; conditions: Homo sapiens, CCF-STTG1;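 also: growth inhibition of human CCF-STTG1 cells, determined with a cell viability read-out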
Description: SANGER: Inhibition of human CCF-STTG1 cell growth in a cell viability assay.

Caov-4 = experiment: cells; format: functional, cell-based; conditions: Homo sapiens
Description: SANGER: Inhibition of human Caov-4 cell growth in a cell viability assay.

Calu-1 = experiment: SANGER: Inhibition of human Calu-1 cell growth in a cell viability assay.; format: functional, cell-based; conditions: Homo sapiens, Calu-1
HCC1143 = experiment: cells; format: functional, cell-based, Homo sapiens; conditions: Homo sapiens, HCC1143;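 also: growth inhibition of human HCC1143 cells, read out with a cell viability assay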
Description: SANGER: Inhibition of human HCC1143 cell growth in a cell viability assay.

TT = experiment: cells; format: functional, cell-based, Homo sapiens; conditions: Homo sapiens, TT
Description: SANGER: Inhibition of human TT cell growth in a cell viability assay.

ECC12 = experiment: cells; format: functional, cell-based; conditions: Homo sapiens
Description: SANGER: Inhibition of human ECC12 cell growth in a cell viability assay.

NCI-H378 = experiment: SANGER: Inhibition of human NCI-H378 cell growth in a cell viability assay.; format: functional, cell-based
TC-YIK = experiment: SANGER: Inhibition of human TC-YIK cell growth in a cell viability assay.; format: functional, cell-based
EW-12 = experiment: SANGER: Inhibition of human EW-12 cell growth in a cell viability assay.; format: functional, cell-based

Measured: IC50

CC(C)c1ccccc1Cc1cc(C(=O)Nc2ccc(S(=O)(=O)c3ccccc3C(C)(C)C)cc2)c(O)c(O)c1O
167 nM: EW-7
378 nM: NCI-H1666
10600 nM: RT-4
2580 nM: SK-MG-1
1070 nM: RH-18
69.2 nM: SK-MEL-5

N#Cc1c(O)c2c(-c3ccc(-c4ccccc4O)cc3)csc2[nH]c1=O
> 1020 nM: RT-4 | COLO 205 | MDA-MB-468 | SNU-475 | Caov-3 cell line | PLC-PRF-5 | EW-7 | MFE-296 | SK-CO-1 | IPC-298 | SNG-M | CCF-STTG1 | Caov-4 | Calu-1 | HCC1143 | TT | ECC12

COc1cc2ncn(-c3cc(OCc4ccccc4S(C)(=O)=O)c(C#N)s3)c2cc1OC [GSK-319347A]
> 5000 nM: NCI-H378 | TC-YIK | EW-12 | ECC12
